These results are taken from patent US5840720A (priority 1995, dated 1998).

Values joined by “and” are separate entries in the source; they are usually repeats but may differ in a detail not shown here. Equal entries are not always repeated. Where two headings read alike, the source gives them in different places. Where no end group is shown, it is not given here.

Assay [1] relates to calcium channel in the isolated guinea-pig atrium. Description: CaCl2-induced chronotropic and inotropic effects in isolated guinea-pig atria. Particulars: for inhibition of calcium-induced chronotropic and inotropic effects: pretreatment, increasing CaCl2, right and left atria. The procedure:
Each point represents the mean of six experiments; vertical bars represent the S.E.M.
FIGS. 6A-6B Effect of CAPCNC6 (10 μM) on the positive chronotropic (spontaneously beating right atrium) and inotropic (electrically-driven left atria) effect of increasing Ca^2+ concentrations in guinea pigs. Beating rate and tension were expressed as % of control values. Data represents the mean±S.E.M. (n=7).
D. Effects of compound on the calcium channel in the isolated guinea-pig atrium

The subject of assay [2] is isolated guinea-pig atria. To be noted: cited from earlier work; for action potential duration: guinea pig atria.
For assay [3], the system named is isolated guinea-pig right and left atrium. Briefly: hCGRP-induced beating and tension of isolated guinea-pig atria.
For assay [4], the system named is isolated guinea-pig right and left atria.
Assay [5] concerns isolated guinea-pig ileum. Briefly: Capsaicin, substance P and carbachol-induced contractility of isolated guinea-pig ileum. To be noted: for inhibition of substance P-induced ileum contraction: SP 0.1 μM; for contraction of ileum smooth muscle: carbachol as control, substance P 0.1 μM. The procedure: FIG. 4 The effects of CAPBZ on response of guinea-pig ileum to capsaicin (10 μM), substance P (SP, 0.1 μM), and carbachol (0.5 μM). […] Thirty minutes following washout, responses to SP, and carbachol were recovered.
C. Antagonist activity of compound on capsaicin and substance Pinduced contractilities of isolated guinea-pig ileum
The abdominal incisions for the guinea pig were made and ilea were isolated and placed in cold (4° C.) Tyrode's solution. 2.5 cm segments of ileum were then trimmed and suspended in an organ bath containing 20 ml low calcium Kreb's solution, aerated with 95% O2 and 5% CO2 at 37° C. As the method reported by M. Takaki et al. (Eur. J. Pharmacol. 174, 5762, 1989).
This effect of capsaicin or substance P was inhibited in the presence of 1.0-100 μM of compound 1 (CAPBZ), concentration-dependently.

The test system of assay [6] is isolated guinea-pig bronchi. Details: species or system guinea pig (Hartley).
Assay [7] relates to capsaicin. Particulars: cited from earlier work.
The subject of assay [8] is airway. To be noted: inhalation; cited from earlier work.
Assay [9] concerns neuronal sodium currents. Particulars: cited from earlier work.
For assay [10], the system named is isolated guinea-pig trachea. Description: Capsaicin-induced contractility of isolated guinea-pig trachea. Details: species or system guinea pig (Hartley). To be noted: 0.01-30 μM capsaicin, cumulative. The text has this:
Each point represents mean±S.E.M of six experiments.
A. Antagonist activity of compounds on capsaicin-induced contractility of isolated guinea-pig bronchi and trachea
Adult guinea pigs (Hartley), weighing 350-450 g, were sacrificed by a blow on the head followed by cervical dislocation. The bronchi and trachea were removed from the lungs, cleaned of all parenchyma, and immediately placed in Kreb's solution. As the method reported by M. G. Belvisi et al. (Eur. J. Pharmacol. 215, 341-4, 1992).

Assay [11] concerns neuronal calcium currents. Particulars: cited from earlier work.
For assay [12], the system named is capsaicin-induced blood pressure changes. The class given is in vivo, Wistar rats.
The test system of assay [13] is capsaicin-induced hypotensive reflex. The class given is in vivo, rats.
Assay [14] concerns capsaicin-induced heart rate changes. The class given is in vivo, Wistar rats.
The test system of assay [15] is guinea-pig bronchi. To be noted: cited from earlier work.
Setting [16] is: 0.1-10 μM compound, 1.0 μM capsaicin, concentration-dependent.
[17] abbreviates: capsaicin 0.01-30 μM cumulative, compound 1 and 3 at 1.0-100 μM, capsazepine 1-10 μM.
[18] abbreviates: A phase, 15 min i.v. infusion 100 μg/kg/min, capsaicin 10 μg/kg i.v., one compartment model.
[19] abbreviates: C phase, 15 min i.v. infusion 100 μg/kg/min, capsaicin 10 μg/kg i.v., one compartment model.
Setting [20] is: pretreatment i.t. 1 nmole, capsaicin i.a. 10 μg/kg, mean±S.E.M., n=6, control (None) -19.6 ± 1.9.
[21] abbreviates: fast phase, 15 min infusion, one compartment model.
Where [22] appears, read: slow phase, 15 min infusion, one compartment model.

For the molecule `[Ca+2].[Cl-].[Cl-]` [CaCl2, reference compound], the inotropic effect result in assay [1] (cumulative CaCl2, electrically driven left atrium) is recorded as “positive inotropic effect”. Besides, the chronotropic effect entry in assay [1] (cumulative CaCl2, spontaneously beating right atrium) was “positive chronotropic effect”.
As to CGRP, the action potential duration entry in assay [2] was “prolong action potential duration”.
For `CCCCCCCCC(=O)NCc1cc2c(c(OC)c1)OCN(c1ccc(C(=O)OCC)cc1)C2` [Compound 1, N[P-(carboxylic acid ethyl ester)-phenylamine-(4-oxymethylene, 5-methylene)-3-methoxybenzyl] nonanamide], the “change of CGRP-induced contractilities after CGRP pretreatment” value in assay [3] (after pretreatment with CGRP for 30 minutes) was “could not change CGRP-induced contractilities”. Further, the “inhibition of hCGRP-induced beating and tension” value in assay [3] (right and electrically driven left atrium, FIG. 7 CAPBZ 50 μM) is on record as “not inhibited”. Further, the “inhibition of capsaicin-induced positive inotropic and chronotropic effect” value in [4] (setting [16]) is on record as “significantly inhibited”. Besides, the “effect of pretreatment on capsaicin-induced inotropic and chronotropic response” value in [4] (pretreatment for 30 min, capsaicin 1 μM, FIGS. 3A-3D) was “decreased the effect of capsaicin”. Moreover, the “inhibition of calcium-induced chronotropic and inotropic effects” value in assay [1] is “could inhibit these calcium effects”. Also, the “inhibition of substance P-induced ileum contraction” value in [5] (compound 1.0-100 μM) is listed as “inhibited”; in assay [5] (compound 1.0-100 μM, listed as CAPBZ), “concentration-dependently reduction of response”. For the same molecule, in assay [5] (carbachol 0.5 μM, FIG. 4), the “reduction of ileum response to carbachol” value is on record as “concentration-dependently reduction of response”. Further, the “inhibition of capsaicin-induced ileum contraction” value in assay [5] (compound 1.0-100 μM, capsaicin 10 μM, concentration-dependent) was “inhibited”. For the same molecule, the “recovery of responses to SP and carbachol after washout” value in assay [5] (thirty minutes following washout) is recorded as “recovered”. Moreover, the “inhibitory effect in bronchi compared with trachea” value in [6] (against capsaicin-induced contraction) is on record as “more effective in bronchi than in trachea”. The “shift of capsaicin-induced contraction in bronchi” value (shortened to “shift”) in [6] (setting [17]) is “shifted rightward”.
With `CCCCCCCCC(=O)NCc1ccc(OCC(O)CO)c(OC)c1` (centres unmarked) [glyceryl nonivamide], in assay [7], the “capsaicin antagonism / agonism” value is “selective capsaicin agonist”.
In the case of `COc1cc(CNC(=O)CCCC/C=C/C(C)C)ccc1O` [Capsaicin], in [2], the action potential duration entry is reported as “prolong action potential duration”. Moreover, the “chronotropic and inotropic effects” value in assay [2] (isolated guinea-pig atria) is “potent positive chronotropic and inotropic effects”. For the same molecule, the “inotropic and chronotropic effect” value is “positive inotropic and chronotropic response” in [4]; “positive inotropic and chronotropic effect” in assay [4] (listed as capsaicin). The airway resistance result in assay [8] is “increase airway resistance and leads to bronchoconstriction”. For the same molecule, in [9], the “inhibition of neuronal sodium currents” value was “inhibit neuronal sodium currents”. For the same molecule, the “contraction of isolated guinea-pig trachea” value in assay [10] was “concentration-dependent increase in contraction”. In addition, the “contraction of ileum smooth muscle” value in [5] (capsaicin 10 μM) is on record as “weaker contractions”. In addition, in assay [6] (0.01-30 μM capsaicin, cumulative), the “contraction of isolated guinea-pig bronchi” value is “concentration-dependent increase in contraction”. Besides, the “inhibition of neuronal calcium currents” value in assay [11] is listed as “inhibit neuronal calcium currents”.
“N[p-ethylketone-phenylamino-(4-oxymethylene, 5-methylene)-3-methoxybenzyl] nonamide [Compound 12]”: the “Recovery half-life (t1/2) of capsaicin-induced blood pressure changes, A phase” value in assay [12] (setting [18]) was 4.30 min. In addition, the “Recovery half-life (t1/2) of capsaicin-induced blood pressure changes, B phase” value in assay [12] (15 min i.v. infusion 100 μg/kg/min, capsaicin 10 μg/kg i.v., one compartment model, listed as NVADA) was 9.00 min and 9.01 min. In [12] (setting [19]), the “Recovery half-life (t1/2) of capsaicin-induced blood pressure changes, C phase” value was 4.49 min. Further, the “inhibition of capsaicin-induced positive inotropic and chronotropic effect” value in assay [4] (setting [16]) is listed as “significantly inhibited”. Moreover, the “depressor reflex response: capsaicin-induced blood pressure changes after pretreatment” value in [13] (setting [20]) is -10.6 ± 2.5. In assay [14] (setting [21]), the “Recovery half-life (t1/2) of capsaicin-induced heart rate changes, fast phase” value was 5.33 min. Moreover, in [14] (setting [22]), the “Recovery half-life (t1/2) of capsaicin-induced heart rate changes, slow phase” value stood at 6.00 min.
In the case of “N-[(4-hydroxy, 5-diethylaminomethyl)-3-methyoxybenzyl] nonamide [Compound 11]”, in assay [12] (rat, in vivo), the “duration order of antagonist activities” value is recorded as “NVABZ>NVABI>capsazepine”; the “efficacy order of antagonist activities, A effect” value is listed as “capsazepine>NVABZ>NVABI”; the “efficacy order of antagonist activities, B effect” value is on record as “NVABI>capsazepine>NVABZ”; the “efficacy order of antagonist activities, C effect” value is listed as “capsazepine>NVABI>NVABZ”. Moreover, the “recovery of antagonist activity to basal level” value in assay [12] (rat, in vivo) was “recovered to basal level by saline infusion for 30, 45, and 60 minutes gradually”. Further, in assay [12] (rat, in vivo, iv), the “Recovery half-life (t1/2) of capsaicin-induced blood pressure changes, A phase” value came out at 10.67 min and the “Recovery half-life (t1/2) of capsaicin-induced blood pressure changes, C phase” value is 21.75 min. Moreover, in assay [4], the “effect of pretreatment on capsaicin-induced inotropic and chronotropic response” value is recorded as “decreased the effect of capsaicin”; the “inhibition of capsaicin-induced positive inotropic and chronotropic effect” value is listed as “significantly inhibited”. The “depressor reflex response: capsaicin-induced blood pressure changes after pretreatment” value in [13] (rat, in vivo) is on record as 19.2 ± 2.5. Moreover, in assay [14] (rat, in vivo), the “Recovery half-life (t1/2) of capsaicin-induced heart rate changes, fast phase” value was 11.95 min and the “Recovery half-life (t1/2) of capsaicin-induced heart rate changes, slow phase” value amounted to 15.75 min.
Take `CCCCCCCCC(=O)NCc1cc2c(c(OC)c1)OCN(CCCCCC)C2` [Compound 6, N-[hexylamino-(4-oxymethene, 5-methylene)-3-methoxybenzyl] nonanamide]: in assay [4] (setting [16]), the “inhibition of capsaicin-induced positive inotropic and chronotropic effect” value is on record as “significantly inhibited”. Also, the “inhibition of calcium-induced chronotropic and inotropic effects” value in [1] is listed as “could inhibit these calcium effects”.
Turning to `C[N+](C)(C)CCOC(N)=O` [carbachol, reference compound], the “contraction of ileum smooth muscle” value in [5] (capsaicin 10 μM) is reported as “maximum contraction”.
Consider “[N-Allylamino-(4-oxymethylene, 5-methylene)-3-methoxybenzyl] nonanamide [Compound 3]”, for which, in assay [6], the “inhibitory effect in bronchi compared with trachea” value is listed as “more effective in bronchi than in trachea” and the “shift” value was “shifted rightward”.
Regarding “substance P: SP (substance P) (RPKPQQFFGLM; ends and bridges not checked; UniProt P20366 58-68, looked up) [reference compound]”, the “contraction of ileum smooth muscle” value in assay [5] (capsaicin 10 μM) is “weaker contractions”.
For `Oc1cc2c(cc1O)CN(C(=S)NCCc1ccc(Cl)cc1)CCC2` [Capsazepine, reference compound], in [12] (A effect), the “efficacy order of antagonist activities, A effect” value was “capsazepine>NVABZ>NVABI”. Moreover, the “Recovery half-life (t1/2) of capsaicin-induced blood pressure changes, A phase” value in [12] (setting [18]) came out at 2.73 min. Further, in [12] (B effect), the “efficacy order of antagonist activities, B effect” value was “NVABI>capsazepine>NVABZ”. In assay [12] (15 min i.v. infusion 100 μg/kg/min, capsaicin 10 μg/kg i.v., one compartment model), the “Recovery half-life (t1/2) of capsaicin-induced blood pressure changes, B phase” value was found to be 2.89 min. Moreover, the “efficacy order of antagonist activities, C effect” value in [12] (C effect) is reported as “capsazepine>NVABI>NVABZ”. Further, the “Recovery half-life (t1/2) of capsaicin-induced blood pressure changes, C phase” value in assay [12] (setting [19]) stood at 3.78 min. Further, in [12] (rat, in vivo), the “duration order of antagonist activities” value is listed as “NVABZ>NVABI>capsazepine”. The “recovery of antagonist activity to basal level” value in assay [12] (saline infusion after 100 μg/kg/min infusion) is “recovered to basal level by saline infusion for 30, 45, and 60 minutes gradually”. For the same molecule, the “depressor reflex response: capsaicin-induced blood pressure changes after pretreatment” value in assay [13] (setting [20]) was determined as 25.8 ± 3.0. The “inhibition of contractile response evoked by capsaicin or electrical field stimulation” value in [15] is “effective in inhibiting the contractile response”. Besides, the “capsaicin antagonism / agonism” value in [7] is “competitive capsaicin antagonist”. Further, the “Recovery half-life (t1/2) of capsaicin-induced heart rate changes, fast phase” value in assay [14] (setting [21]) came to 1.36 min. Besides, in assay [14] (setting [22]), the “Recovery half-life (t1/2) of capsaicin-induced heart rate changes, slow phase” value was 3/52. Also, the “shift” value in [6] (setting [17]) is reported as “shifted rightward”.
